Test results published in PMC5397029, “Variations in the interaction of human defensins with Escherichia coli: Possible implications in bacterial killing” (PLoS ONE, 2017).
Entries after “also recorded” stand apart in the source; their conditions may differ. Where two headings read alike, the source gives them in different places. Peptide text beside a SMILES is read from it.

Tests used:
[1] = system: E. coli; experiment: Zeta potential of E. coli in the presence of defensins; format: cell-based, Escherichia coli; details: for E. coli surface charge neutralizing ability (change in zeta potential): 5 μM defensin, except HD5 2.5 μM and HBD3 0.5 μM, three independent experiments; for concentration found to neutralize the E. coli surface charge almost completely: zeta potential of E. coli
Method: Zeta potential of the E. coli in the presence of human defensins was measured as described previously. The concentration of peptide used was 5μM, except for HBD3 and HD5. […] Cells were treated with 5 μM defensin and zeta potential was measured, except in the cases of HD5 and HBD3. In the cases of HD5 and HBD3, zeta potential was measured after treating with 2.5 μM and 0.5 μM of peptides, respectively. Control represent zeta potential of E. coli in the absence of any peptide. Error bars represents standard deviations of three independent experiments.

[2] = system: E. coli inner membrane; experiment: Time-lapse fluorescence confocal microscopy (SYTOX green / FM4-64); format: cell-based, Escherichia coli; details: for Intracellular accumulation of SYTOX green (E. coli inner membrane permeabilization): sub-lethal concentrations: HBD1 3 μM, HBD2 3 μM, HBD3 1 μM, HBD4 3 μM, HNP3 8 μM, HNP4 4 μM, HD5 2.5 μM, HD6 5 μM, 10^6 CFU/mL, 10 mM sodium phosphate buffer pH 7.4; for Intracellular accumulation of SYTOX green (E. coli inner membrane permeabilization) / time at which SYTOX green accumulation is evident: 5 nM SYTOX green; for time at which SYTOX green accumulation is evident: sub-lethal defensin concentrations, time-lapse confocal microscopy
Method: Effect of defensins on the E. coli inner membrane was examined using time-lapse confocal fluorescence microscopy. The assay was carried out as follows. Bacteria from the mid-log-phase was collected and resuspended (final density was adjusted to 10^6 CFU/mL) in 10 mM sodium phosphate buffer (pH 7.4). Cells were then treated with 3 μM FM4-64 for 20 minutes at room temperature to stain the inner membrane. FM4-64 is a lipophilic dye which stains the bacterial inner membrane. Excess dye was removed by centrifuging. The FM4-64 stained cells were then treated with sub-lethal concentrations of defensins in presence of 5 nM of SYTOX green. […] Cells were immediately transferred to chambered slides and images were recorded using 100X oil immersion objective on a Leica Ultraspectral microscope SP8 (Leica Microsystems). Argon 488 and HeNe 561 lasers were used to excite SYTOX green and FM4-64, respectively. Signals ranging from 510 to 560 nm and 600 to 740 nm were collected for SYTOX green and FM4-64, respectively. Images were processed using LAS-AFver3.1.3 (Leica Microsystems).

[3] = system: E. coli inner membrane; experiment: SYTOX green uptake assay using fluorescent spectroscopy; format: cell-based, Escherichia coli; details: 2 × MBC of defensins, 200 nM SYTOX green, 5 × 10^6 CFU/mL, 10 mM phosphate buffer
Method: Effect of defensins on the E. coli inner membrane was assessed by measuring the extent of intracellular accumulation of SYTOX green. Cells from mid-log-phase were collected, washed and resuspended in 10 mM phosphate buffer. The final density was adjusted to 5 × 10^6 CFU/mL. […] Enhancement in SYTOX green fluorescence, a direct measure of the extent of membrane permeabilization was monitored in a Flurolog 3–22 fluorescence spectrophotometer (Jobin Yvon, USA). Excitation and emission wavelengths used were 503 nm and 523 nm, respectively.  Fig 4 Accumulation of SYTOX green in human defensins treated E. coli. […] The arrows indicate the point at which defensins were added.

[4] = Calcein release assay from lipid vesicles; details: calcein entrapped POPC:POPG (1:1) LUVs, 25 μM, 10 mM sodium phosphate buffer pH 7.4, increasing defensin concentrations; 1% Triton X-100 = 100%
Method: Large unilamellar vesicles (LUVs) composed of POPC:POPG (1:1) containing 50 mM calcein were prepared by lipid extrusion method. Desired amounts of lipids from their respective chloroform stocks were taken into a glass tube and dried under a nitrogen stream to form a thin uniform lipid film. The film was further dried under vacuum for 5 to 6 hours to remove trace amounts of organic solvents. After this step, the lipid film was hydrated with 10 mM sodium phosphate buffer (pH 7.4) containing 50 mM calcein at 4°C for 12 to 15 hours. Hydrated lipid films were then vortexed and passed through polycarbonate membrane having a pore diameter of 100 nm using a mini-extruder (Avanti Polar Lipid Inc.). Free calcein was removed by passing through a Sephadex G50 column. Calcein entrapped vesicles (25 μM) were then treated with increasing concentrations of defensins and extent of calcein released was measured in a Fluorolog 3–22 fluorescence spectrophotometer (Jobin Yvon, USA). Excitation and emission wavelengths used were 485 and 515 nm, respectively. 1% Triton X-100 was used for complete release of calcein.  Fig 5 Effect of human defensins on POPC:POPG (1:1) vesicles. Calcein entrapped POPC: POPG vesicles (25 μM) were treated with increasing concentrations of human defensins and percentage of calcein released was calculated. Calcein released by 1% Triton X-100 was taken as 100%.

[5] = Transmission electron microscopy of defensin aggregates; format: physicochemical; details: 20 μM defensin in 10 mM sodium phosphate buffer pH 7.4, uranyl acetate stain, TEM
Method: Defensins were diluted to a concentration of 20 μM in 10 mM sodium phosphate buffer (pH 7.4) from their respective stocks solutions (dissolved in Milli-Q water). From these solutions, 5 μL was deposited on a carbon-coated Formvar 200-mesh copper grid. The grid was left undisturbed for about 5 minutes; excess buffer was then removed using Whatman filter paper. Grids were stained with uranyl acetate (2% w/v) for 45 seconds. Excess stain was removed and grids were used for recording the images. Images were recorded using JAM-2100 LaB6 transmission electron microscope (JEOL, Tokyo, Japan) at 100 kV.

[6] = system: E. coli inner membrane; details: ref Wang et al. [55]; cited from earlier work
Method: Recent findings indicate HD5 exerts its activity against the E. coli by localizing to bacterial cytoplasm and possibly interacting with DNA [39]. In a very recent study, Wang et al., have shown that HD5 permeabilizes the E. coli inner membrane. However, prolonged incubation (~40 minutes) was required t ...

[7] = system: E. coli MG1655; details: cited from earlier work
From the text: Table 2 Minimum Bactericidal Concentration (MBC) of human defensins against E. coli MG1655. | column: Minimum bactericidal concentration in μM^a

[8] = ref Krishnakumari et al. 2013 [44]

Compound	E. coli surface charge neutralizing ability (change in zeta potential) [1]	concentration found to neutralize the E. coli surface charge almost completely [1] [µM]	Intracellular accumulation of SYTOX green (E. coli inner membrane permeabilization) [2]	time at which SYTOX green accumulation is evident [2]	Damage to the E. coli inner membrane (SYTOX green accumulation, time-lapse microscopy and fluorescent spectroscopy) [3]	Permeabilization of lipid vesicles (calcein release) [4]	Morphology of self-assembled aggregates (electron micrographs) [5]	incubation required to observe E. coli inner membrane perturbation [6]	Minimum bactericidal concentration [7, 8] [µM]	Morphological features of FM4-64 stained E. coli inner membrane ([2]; 3 μM FM4-64, sub-lethal defensin concentration (HBD4 3 μM))	Minimum bactericidal concentration ([7]; ref Sharma and Nagaraj 2012 [45]) [µM]
CC[C@H](C)[C@@H]1NC(=O)[C@H](CCC(=O)O)NC(=O)[C@@H]2CSSC[C@@H]3NC(=O)[C@H](Cc4ccc(O)cc4)NC(=O)[C@@H](NC(=O)[C@@H](NC(=O)[C@H](C)N)[C@@H](C)O)CSSC[C@@H](C(=O)N[C@@H](CCCNC(=N)N)C(=O)O)NC(=O)[C@H](CSSC[C@H](NC(=O)[C@H](CCCNC(=N)N)NC(=O)CNC(=O)[C@H]([C@@H](C)O)NC(=O)[C@H](CCCNC(=N)N)NC3=O)C(=O)N[C@@H](C)C(=O)N[C@@H]([C@@H](C)O)C(=O)N[C@@H](CCCNC(=N)N)C(=O)N[C@@H](CCC(=O)O)C(=O)N[C@@H](CO)C(=O)N[C@@H](CC(C)C)C(=O)N[C@@H](CO)C(=O)NCC(=O)N[C@@H](C(C)C)C(=O)N2)NC(=O)[C@H](CC(C)C)NC(=O)[C@H](CCCNC(=N)N)NC(=O)[C@H](Cc2ccc(O)cc2)NC(=O)[C@H](CC(C)C)NC(=O)[C@H](CCCNC(=N)N)NC(=O)CNC(=O)[C@H](CO)NC1=O [HD5] (HELM PEPTIDE1{A.T.C.Y.C.R.T.G.R.C.A.T.R.E.S.L.S.G.V.C.E.I.S.G.R.L.Y.R.L.C.C.R}$PEPTIDE1,PEPTIDE1,3:R3-31:R3|PEPTIDE1,PEPTIDE1,5:R3-20:R3|PEPTIDE1,PEPTIDE1,10:R3-30:R3$$$V2.0; N-terminus and C-terminus assumed)	neutralizes the E. coli surface charge at much lower concentration than HNP4	2.5	does not permeabilize the E. coli inner membrane; also recorded: faint localization of SYTOX green	30 min	do not cause extensive damage to the E. coli inner membrane	do not permeabilize membranes	rod-like structures	~ 40 minutes	–	–	–
CC[C@H](C)[C@@H]1NC(=O)[C@H](CC(C)C)NC(=O)[C@@H]2CSSC[C@@H]3NC(=O)[C@H](CO)NC(=O)[C@@H](NC(=O)[C@@H](N)C(C)C)CSSC[C@@H](C(=O)N[C@H](C(=O)N[C@@H](CCCNC(=N)N)C(=O)N[C@H](C(=O)O)C(C)C)[C@@H](C)O)NC(=O)[C@H](CSSC[C@H](NC(=O)[C@H](Cc4ccccc4)NC(=O)[C@H](C(C)C)NC(=O)[C@H](CC(C)C)NC(=O)[C@H](CCCNC(=N)N)NC3=O)C(=O)N[C@@H](CCCNC(=N)N)C(=O)N[C@@H](CCCNC(=N)N)C(=O)N[C@@H]([C@@H](C)O)C(=O)N[C@@H](CCC(=O)O)C(=O)N[C@@H](CC(C)C)C(=O)N[C@@H](CCCNC(=N)N)C(=O)N[C@@H](C(C)C)C(=O)NCC(=O)N[C@@H](CC(N)=O)C(=O)N2)NC(=O)[C@H](Cc2ccc(O)cc2)NC(=O)[C@H]([C@@H](C)O)NC(=O)[C@H](Cc2ccccc2)NC(=O)[C@H](CO)NC(=O)[C@H](C(C)C)NC(=O)CNC(=O)CNC1=O [HNP4] (HELM PEPTIDE1{V.C.S.C.R.L.V.F.C.R.R.T.E.L.R.V.G.N.C.L.I.G.G.V.S.F.T.Y.C.C.T.R.V}$PEPTIDE1,PEPTIDE1,2:R3-30:R3|PEPTIDE1,PEPTIDE1,4:R3-19:R3|PEPTIDE1,PEPTIDE1,9:R3-29:R3$$$V2.0; N-terminus and C-terminus assumed)	–	–	cytoplasmic accumulation of SYTOX green is evident	11 min	–	–	–	–	–	–	–
AFTC^1HC^2RRSC^3YSTEYSYGTC^2TVMGINHRFC^3C^1L (bicyclic or more) [HD6]	neutralizes the E. coli surface charge more efficiently than HBD4 (+7), HBD1 (+ 4) and HNP3 (+2)	–	–	–	do not cause extensive damage to the E. coli inner membrane	do not permeabilize membranes	distinctive fibrillar morphology	–	–	–	–
DHYNC^1VSSGGQC^2LYSAC^3PIFTKIQGTC^2YRGKAKC^1C^3K (bicyclic or more) [HBD1, human β-defensin, three disulfide bonds, purchased from Peptides International]	poor surface charge neutralizing ability	–	faint accumulation of SYTOX green	~ 20 min	do not cause extensive damage to the E. coli inner membrane	do not permeabilize membranes	–	–	8	–	–
ELDRIC^1GYGTARC^2RKKC^3RSQEYRIGRC^2PNTYAC^1C^3LRKWDESLLNRTKP (bicyclic or more) [HBD4, human β-defensin, three disulfide bonds, purchased from Peptides International]	–	–	–	–	–	does not permeabilize PC:PG vesicles	–	–	–	FM4-64 staining shows considerable diffusion into cytoplasm	5
GIGDPVTC^1LKSGAIC^2HPVFC^3PRRYKQIGTC^2GLPGTKC^1C^3KKP (bicyclic or more) [HBD2, human β-defensin, three disulfide bonds, purchased from Peptides International]	–	–	–	–	–	–	–	–	8	–	–
GIINTLQKYYC^1RVRGGRC^2AVLSC^3LPKEEQIGKC^2STRGRKC^1C^3RRKK (bicyclic or more) [HBD3, human β-defensin, three disulfide bonds, purchased from Peptides International]	most efficient bacterial surface charge neutralizing ability	0.5	–	–	–	–	–	–	2	–	–
